Measured values from patent US20260069584A1, “METHODS OF TREATING CHRONIC MYELOID LEUKEMIA USING THE TYROSINE KINASE INHIBITOR VODOBATINIB” (Sun Pharma Advanced Research Company Ltd., priority 2022, published 2026).

System: CP CML
Assay: Part B: disease response in CP CML subjects
Format: in vivo, human
Conditions: for Complete Molecular Response, Best Response / Complete cytogenetic response, Best Response / Cytogenetic response: Minimal response, Best Response / Cytogenetic response: Minor response, Best Response / Cytogenetic response: No response, Best Response / Hematological response: CHR, Best Response / Hematological response: No response, Best Response / Major cytogenetic response, Best Response / Major molecular response, Best Response / Molecular response: No response, Best Response / Partial cytogenetic response, Best Response: number of patients
Source text: This was a Phase I/2, open-label, single-agent, multicenter, multi-dose, dose-escalation study in subjects with Philadelphia chromosome-positive Ph+ CML (CP CML, AP CML and BP CML) and Ph+ ALL. The primary objectives of this study were to determine the maximum tolerated dose (MTD; or recommended Phase 2 dose [RP2D]) of the compound of Formula I when administered orally and to evaluate its safety.
In this study, the dose-escalation cohort started with an accelerated titration study design (ATD) and shifted to a 3±3 design when subjects in the preceding ATD cohort experienced either grade 2 or higher adverse events (AEs) or dose-limiting toxicity (DLT) during Cycle 1 that was not clearly and incontrovertibly related to the underlying disease or concomitant medications. The DLT period consisted of 28 days (Cycle 1). Subjects experiencing DLTs were managed with dose delays and/or discontinuation and continued in the study until disease progression. Decisions to advance to a succeeding dose level occurred after the evaluation of safety and tolerability data for a given dose level.
Accordingly, the eligible subjects were treated in 4-week cycles of once daily self-administration of the compound of Formula I. The administration was after an overnight fast, or after maintaining approximately 2 hours of fasting before and after the dosing in all cycles.
For the cohorts, where the 3±3 design applies, 3 subjects were enrolled initially. If 2 of these subjects experienced a Grade 2 or more toxicity (that was not clearly and incontrovertibly related to the underlying disease or concomitant medications), subsequent cohorts were escalated according to smaller increments. Further, if there were no DLTs in the first 3 subjects, dose escalation to the next higher dose level was allowed to proceed. If 1 of the 3 subjects experienced a DLT, that dose level was expanded to 6 subjects (3 additional subjects were enrolled). If 2 subjects at a given dose level experienced a DLT, the MTD was considered to have been exceeded. The next lower dose level was expanded to 6 subjects, or if 6 subjects had already been enrolled and no more than 1 of the 6 subjects experienced a DLT, then this lower dose level was considered the MTD. Additional subjects were enrolled in dose escalation cohorts for further assessment of safety and efficacy of the compound of Formula 1 at doses that were tolerated (i.e., doses that have <2 DLTs in 6 enrolled subjects or <1 DLT in 3 enrolled subjects). Thus 204 mg was arrived at as MTD. A subject experiencing a DLT was allowed to continue therapy with a reduced dose. Subjects who experienced a DLT and recovered were treated at the next lower dose level until disease progression or other events requiring further dose reduction existed. For cohorts at Dose Level 2 or higher, a further dose reduction (i.e., up to 2 levels lower than their originally assigned dose) was implemented in the case of a further DLT or other non-DLT events requiring a dose reduction, if and when the event leading to dose reduction returned to Grade 1 or lower in severity. The reduced dose was re-escalated to the original or higher dose (i.e., the dose for which safety had been established in the dose escalation cohort) considering subject safety and response to the compound of Formula I. The subject was discontinued from treatment using the compound of Formula I, if dose reduction below 48 mg was required.
The study was conducted over a period of 60 months (5 years) which was divided in 28-days cycle. In the first two cycles, the dose administration was started on day 1 and the subject's assessments were performed on day 1, day 2, day 3, day 8, day 15 and day 22. From Cycle 3 onwards, the assessments were performed every 3 months (i.e., on day 28 of Cycle 3, followed by day 28 of Cycle 6 which was further followed by day 28 of Cycle 9). […]

[1] = 16 CP CML patients with prior ponatinib
[2] = prior ponatinib, 48 mg (N = 1) ESC
[3] = prior ponatinib, 66 mg (N = 2) ESC
[4] = prior ponatinib, 90 mg (N = 2) ESC
[5] = prior ponatinib, 126 mg (N = 1) ESC
[6] = prior ponatinib, 174 mg (N = 5) ESC
[7] = prior ponatinib, 204 mg (N = 3) ESC
[8] = prior ponatinib, 240 mg (N = 2) ESC

Cc1ccc(C(=O)NNC(=O)c2c(C)cccc2Cl)cc1C#Cc1cnc2ccccc2c1 [compound of Formula I, N′-(2-chloro-6-methylbenzoyl)-4-methyl-3-[2-(3-quinolyl)ethynyl]-benzohydrazide]
Best Hematologic Response: No Response (204 mg (N = 6) ESC): 0
Best Molecular Response: Complete Response (204 mg (N = 6) ESC): 1(16.7)
Best Molecular Response: Major Response (204 mg (N = 6) ESC): 3(50.0)
Best Molecular Response: No Response (204 mg (N = 6) ESC): 3(50.0)
Best Cytogenetic Response: Complete Response (240 mg (N = 3) ESC): 3(100)
Best Cytogenetic Response: Major Cytogenetic Response (240 mg (N = 3) ESC): 3(100)
Best Cytogenetic Response: Minimal Response (240 mg (N = 3) ESC): 0
Best Cytogenetic Response: Minor Response (240 mg (N = 3) ESC): 0
Best Cytogenetic Response: No Response (240 mg (N = 3) ESC): 0
Best Cytogenetic Response: Partial Response (240 mg (N = 3) ESC): 0
Best Hematologic Response: Complete Response (240 mg (N = 3) ESC): 2(66.7)
Best Hematologic Response: Major Hematologic Response (240 mg (N = 3) ESC): 2(66.7)
Best Hematologic Response: No Evidence of Leukemia (240 mg (N = 3) ESC): 0
Best Hematologic Response: No Response (240 mg (N = 3) ESC): 0
Best Molecular Response: Complete Response (240 mg (N = 3) ESC): 1(33.3)
Best Molecular Response: Major Response (240 mg (N = 3) ESC): 3(100)
Best Molecular Response: No Response (240 mg (N = 3) ESC): 0
MMR achieved (8 patients out of 17, prior ponatinib): 47%
Major Cytogenetic Response (MCyR, both PCyR+ CCyR) (11 of 16 CP CML patients with prior ponatinib): 68.8%
Achieved MCyR [1]: 6 patients
Maintained MCyR [1]: 5 patients
Complete Molecular Response, Best Response (ASC (N = 3)): 0
Complete cytogenetic response, Best Response (ASC (N = 3)): 1
Cytogenetic response: Minimal response, Best Response (ASC (N = 3)): 0
Cytogenetic response: Minor response, Best Response (ASC (N = 3)): 1
Cytogenetic response: No response, Best Response (ASC (N = 3)): 1
Hematological response: CHR, Best Response (ASC (N = 3)): 3
Hematological response: No response, Best Response (ASC (N = 3)): 0
Major cytogenetic response, Best Response (ASC (N = 3)): 1
Major molecular response, Best Response (ASC (N = 3)): 0
Molecular response: No response, Best Response (ASC (N = 3)): 3
Partial cytogenetic response, Best Response (ASC (N = 3)): 0
Complete Molecular Response, Best Response (PON (N = 15)): 4
Complete cytogenetic response, Best Response (PON (N = 15)): 7
Cytogenetic response: Minimal response, Best Response (PON (N = 15)): 1
Cytogenetic response: Minor response, Best Response (PON (N = 15)): 1
Cytogenetic response: No response, Best Response (PON (N = 15)): 2
Hematological response: CHR, Best Response (PON (N = 15)): 12
Hematological response: No response, Best Response (PON (N = 15)): 3
Major cytogenetic response, Best Response (PON (N = 15)): 10
Major molecular response, Best Response (PON (N = 15)): 8
Molecular response: No response, Best Response (PON (N = 15)): 7
Partial cytogenetic response, Best Response (PON (N = 15)): 3
Best Cytogenetic Response: Complete Response (Total (N = 30) ESC): 17(56.7)
Best Cytogenetic Response: Major Cytogenetic Response (Total (N = 30) ESC): 20(66.7)
Best Cytogenetic Response: Minimal Response (Total (N = 30) ESC): 4(13.3)
Best Cytogenetic Response: Minor Response (Total (N = 30) ESC): 1(3.3)
Best Cytogenetic Response: No Response (Total (N = 30) ESC): 3(10.0)
Best Cytogenetic Response: Partial Response (Total (N = 30) ESC): 3(10.0)
Best Hematologic Response: Complete Response (Total (N = 30) ESC): 24(80.0)
Best Hematologic Response: Major Hematologic Response (Total (N = 30) ESC): 24(80.0)
Best Hematologic Response: No Evidence of Leukemia (Total (N = 30) ESC): 0
Best Hematologic Response: No Response (Total (N = 30) ESC): 4(13.3)
Best Molecular Response: Complete Response (Total (N = 30) ESC): 7(23.3)
Best Molecular Response: Major Response (Total (N = 30) ESC): 14(46.7)
Best Molecular Response: No Response (Total (N = 30) ESC): 14(46.7)
CCyR as best response (more than 3 prior TKIs including ponatinib): 46.7%
CCyR as best response (more than 3 prior TKIs including ponatinib and asciminib): 33.3%
Major cytogenetic response as best response (ponatinib group): 66.7%
Major cytogenetic response as best response (ponatinib plus asciminib group): 33.3%
Achieved MCyR [2]: 0
Achieved MMR [2]: 1(100)
MCyR [2]: 1(100)
Maintained MCyR [2]: 1(100)
Maintained MMR [2]: 0
Achieved MCyR [3]: 1(50.0)
Achieved MMR [3]: 0
MCyR [3]: 1(50.0)
Maintained MCyR [3]: 0
Maintained MMR [3]: 0
Achieved MCyR [4]: 1(50.0)
Achieved MMR [4]: 1(50.0)
MCyR [4]: 1(50.0)
Maintained MCyR [4]: 0
Maintained MMR [4]: 0
Achieved MCyR [5]: 0
Achieved MMR [5]: 0
MCyR [5]: 0
Maintained MCyR [5]: 0
Maintained MMR [5]: 0
Achieved MCyR [6]: 1(20.0)
Achieved MMR [6]: 3(60.0)
MCyR [6]: 3(60.0)
Maintained MCyR [6]: 2(40.0)
Maintained MMR [6]: 0
Achieved MCyR [7]: 2(66.7)
Achieved MMR [7]: 1(33.3)
MCyR [7]: 3(100)
Maintained MCyR [7]: 1(33.3)
Maintained MMR [7]: 0
Achieved MCyR [8]: 1(50.0)
Achieved MMR [8]: 2(100)
MCyR [8]: 2(100)
Maintained MCyR [8]: 1(50.0)
Maintained MMR [8]: 0
Achieved MCyR (prior ponatinib, Total ESC): 6(37.5)
Achieved MMR (prior ponatinib, Total ESC): 8(50.0)
MCyR (prior ponatinib, Total ESC): 11(68.8)
Maintained MCyR (prior ponatinib, Total ESC): 5(31.3)
Maintained MMR (prior ponatinib, Total ESC): 0
